Laboratory results reported in patent US20240325335A1, “BIOLOGICALLY COMPATIBLE, BIOFILM DISRUPTING COMPOSITION AND METHODS” (priority 2023, published 2024).
Where “and” joins values, the source holds several entries; their conditions need not be identical. Equal values may be shown once. Starred links: 1 amine or outer side, 2 acyl side, 3 side chain; linkers in the order of their positions; H or OH if unused. Positions of bridges follow the written chain, without caps; N, C: chain ends. Non-standard residues stand in square brackets, D forms with d. Residues, ends and D or L forms follow the SMILES beside them. X1 = CC(C)CCCCCCCCC[C@H](CC(=O)[*:1])O[*:2]

Key:
[1] = system: cold sores; experiment: Additional clinical data and case study, cold sores; assay type: in vivo, human; conditions: case study patient (untreated 2-4 weeks)
[2] = at 24 hours (Zeichner, '13); cited from earlier work
[3] = system: C. trachomatis; conditions: Bergsson, '98; cited from earlier work
[4] = system: Pseudomonas aeruginosa biofilm; experiment: Biofilm Protocol #3, LR against 48-hour biofilm, CDC Biofilm Reactor; assay type: cell-based; conditions: pH 9.0, 5 hours contact time
Procedure: LR testing was performed with varying compositions of GML and UDA against Staph. aureus, Pseudomonas aeruginosa, E. coli., Klebsiella pneumonia, Enterococcus faecalis. All biofilm is 48 hour laboratory grown. Biofilms of the tested organisms were grown in the laboratory to become mature 48-hour old biofilm. Testing involved the evaluation of numerous composition combinations for their ability to kill biofilm-associated pathogens grown using a CDC Biofilm Reactor. The ability to kill organisms was documented as a LR of the selected organisms that was measured as CFUs (colony forming units). LRs were documented for the different composition combinations. Testing protocols initially included both FAs and esters. […] LR testing was performed with numerous combinations to determine an optimal combination. […] Additional combinations comprised the plant phenol/flavonoid quercetin, amino acids, the synthetic surfactant SLS, biosurfactants RL and MEL, and UDA. The BS SL was not tested due to poor results in the prior P #2 configurations. […] The TSC served as a buffer. […] Alkaline pH was buffered with disodium hydrogen phosphate or glycine.

[5] = system: Candida albicans (ATCC MYA-2876; TPPS 1078), planktonic; experiment: P #5A planktonic antifungal testing; assay type: cell-based; conditions: up to 5-hour contact time, lecithin solubilizer
Procedure: Two sets of planktonic antifungal tests were performed, Candida and the dermatophyte Epidermophyton floccusum. Fungal strains-Candida albicans (ATCC MYA-2876; TPPS 1078) procured from the American Type Culture Collection, Manassas, VA.-Epidermophyton floccosum (ATCC 15693; TPPS 1243) procured from the American Type Culture Collection, Manassas, VA.

[6] = aqueous
[7] = system: P. acnes; experiment: Protocol #4 in-vitro time-kill (ASTM E2315); assay type: cell-based, Propionibacterium acnes
Procedure: PURPOSE: This evaluation uses an in-vitro time-kill method to quantitatively assess the bactericidal activity of […] (10) formulations when challenged with P. acnes. An in vitro time-kill evaluation was conducted with various compositions based upon the methods described in the standardized ASTM […], Standard Guide for Assessment of Antimicrobial Activity Using a Time-Kill Procedure. […] A neutralization assay was performed on all the challenge organisms. Testing at pH 4.0.

[8] = cited from earlier work
[9] = system: enveloped viruses; conditions: at 1 hour, virtually all enveloped viruses tested (Hierholzer, '16); cited from earlier work
[10] = system: Herpes Simplex Virus type 1 strain HF (ATCC #VR-260); experiment: Virucidal Suspension Test (ASTM E1052-20, in-vitro time-kill); assay type: cell-based; conditions: pH 9.0, 30 sec
Excerpt: The testing was based upon ASTM E1052-20, Standard Practice to Assess the Activity of Microbicides against Viruses in Suspension. The first antiviral testing protocols involve only HSV-1 virus with both alkaline and acid pH tests.
This study was done to determine virucidal efficacy of twelve test products when challenged with Herpes Simplex Virus type 1 strain HF (ATCC #VR-260) based upon a Virucidal Suspension Test (In-Vitro Time-Kill method). The test products comprise 8 varying compositions. Calculations of the estimated virus concentrations was performed using a 50% tissue culture infectious dose (TCID50) calculation—the Quantal test (Spearman-Karber Method). The logo reductions from the initial population of the viral strain were determined following exposure to the test product for 30 seconds, 2.5 minutes and 5 minutes. Testing was conducted in one replicate. Plating was performed in four replicates. […]
This study was done to determine virucidal efficacy of 12 test products when challenged with HSV-1 strain HF (ATCC #VR-260) and Human Coronavirus strain OC43 (ZeptoMetrix #0810024CF) based upon a Virucidal Suspension Test (In-Vitro Time-Kill method). […] The log 10 reductions from the initial population of the viral strain were determined following exposure to the test product for 30 seconds, 2.5 minutes and 5 minutes. […]

[11] = system: Pseudomonas aeruginosa (ATCC #15442) biofilm; experiment: Biofilm Protocol #1, ASTM E2871 single tube method, CDC Biofilm Reactor; conditions: 5-minute contact time; for Log10 CFU/Coupon: treated coupons
[12] = system: Staphylococcus aureus (ATCC #6538) biofilm; experiment: as above; conditions: 5-minute contact time; for Log10 CFU/Coupon: treated coupons
[13] = system: Pseudomonas aeruginosa (ATCC #15442) biofilm; experiment: Biofilm Protocol #2, ASTM E2871 single tube method, 48 hour biofilm; assay type: cell-based
Procedure: (§1) In this round of testing, it was the intent to test numerous potential antibiofilm combinations.
(§2) EtOH (ethanol) was used as a solvent for all hydrophobic compounds: SLs, CaprAc, CURC and OCT. EtOH was used at up to 1.0% concentration.
(§3) Alkaline pH is achieved with NaOH titration.
(§4) Each was performed in one replicate for each species. A single sponsor-selected exposure duration was evaluated. The challenge organisms for this evaluation were Pseudomonas aeruginosa (ATCC #15442) and Staphylococcus aureus MRSA (ATCC #6538

[14] = system: Staphylococcus aureus MRSA (ATCC #6538) biofilm; experiment: as above; assay type: cell-based
Procedure: as §1, §2, §3, §4

[15] = system: Candida albicans 48 hour biofilm; experiment: P #5B-D Candida biofilm testing; assay type: cell-based; conditions: pH 9.0-9.5, one hour contact time
Procedure: Organisms: Candida albicans ([…] 1078). Date Culture Initiated: […] Culture Medium: Sabouraud dextrose agar. […] These tests were performed utilizing only UDA, due to the poor GML results in P #5A. […] […] Effect of Aspartic Acid, Cysteine, Salicylic Acid […] Prior literature indicates poor antifungal effects in alkaline pH, thus it was the intent to document whether disclosed compositions would generate an improved antifungal effect in alkaline pH.

[16] = system: Mycobacterium fortuitum (ATCC #6841) biofilm; experiment: Protocol #6 mycobacterial biofilm in silicone tubing; assay type: cell-based; conditions: pH 9.0, 5 hours contact time
Procedure: Two challenge microorganisms are separately evaluated: Brevundimonas diminuta (ATCC #19146) and Mycobacterium fortuitum (ATCC #6841). Biofilms of each challenge microorganism were formed in laboratory-created tubing loops consisting of a length of silicone tubing connected to a bottle of challenge microorganism in growth broth. The fluid within the tubing loop was recirculated for 10 to 14 days (Mycobacterium fortuitum) at a flowrate of 30 mL/minute while held at 36° C. (Mycobacterium fortuitum). Following completion of biofilm generation, the tubing loops were drained, and the tube lumen gently rinsed with phosphate-buffered water to remove planktonic (i.e., non-biofilm) challenge microorganisms. The tubing was then disinfected according to the manufacturer's Instructions for Use. At the completion of treatment, a portion of the silicone tubing was removed for analysis of biofilm concentration and imaging of biofilm coverage.

Molecule: Nc1nc2c(ncn2COCCO)c(=O)[nH]1 [Acyclovir, acyclovir]
- time to resolution of cold sores [1]: 7 to 14 days

Molecule: O=C(OOC(=O)c1ccccc1)c1ccccc1 [BPO, benzoyl peroxide]
- BPO absorbed through the skin [2]: 5-9%

Molecule: CCCCCCCC(=O)O [Caprylic acid]
- reduction in the infectivity titer / inactivation [3]: negligible effects

Molecule: CCCCCCCCCCCC(=O)OCC(O)CO (centres unmarked) [GML, glycerol monolaurate]
- LR PA [4]: 9.11
- LRs against planktonic C. albicans [5]: 0-1
- maximum concentration of GML solubilized ([6]; EtOH 1% as solvent): 0.1%
- GML concentration solubilized ([6]; deoiled lecithin as solubilizer): ≥ 20%
- reduction in the infectivity titer / inactivation [3]: negligible effects
- Log Reductions 0.5 (30 seconds) ([7]; pH 4.0, 30 seconds exposure): 1.87
- Log Reductions 5 min ([7]; pH 4.0, 5 min exposure): 4.81
- maximal water solubility [8]: < 100 µg/mL
- log reduction [9]: > 3
- LR 30 sec [10]: > 5.5 and > 4.75 and > 5.25

Molecule: CCCCCCCCN=c1ccn(CCCCCCCCCCn2ccc(=NCCCCCCCC)cc2)cc1 [I: OCT 0.1%, 1 mg/mL, octenidine]
- Log10 Reduction [11]: 1.84
- Percent Reduction [11]: 98.56%
- Log10 CFU/Coupon [11]: 7.31
- Log10 Reduction ([12]; 1 mg/mL.): 3.28
- Percent Reduction ([12]; 1 mg/mL.): 99.95%
- Log10 CFU/Coupon ([12]; 1 mg/mL.): 4.93

Molecule: CCCCCCCCN=c1ccn(CCCCCCCCCCn2ccc(=NCCCCCCCC)cc2)cc1 [J: OCT 0.02%, 0.2 mg/mL, octenidine]
- Log10 Reduction [11]: 0.80
- Percent Reduction [11]: 84.48%
- Log10 CFU/Coupon [11]: 8.35
- Log10 Reduction ([12]; 0.2 mg/ml): 1.87
- Percent Reduction ([12]; 0.2 mg/ml): 98.68%
- Log10 CFU/Coupon ([12]; 0.2 mg/ml): 6.34

Molecule: CCCCCCCCN=c1ccn(CCCCCCCCCCn2ccc(=NCCCCCCCC)cc2)cc1 [OCT, octenidine]
- LOG REDUCTIONS Pseud ([13]; Acid pH 4.0): 4.9
- LOG REDUCTIONS Pseud ([13]; Alkaline pH 8.5): 9.11
- LOG REDUCTIONS Staph ([14]; Acid pH 4.0): 1.08
- LOG REDUCTIONS Staph ([14]; Alkaline pH 8.5): 7.9

Molecule: CCCCCCCCCCCCOS(=O)(=O)[O-].[Na+] [SLS, sodium lauryl sulfate]
- LR PA [4]: 3.76

Molecule: CC(C)CCCCCCCCC[C@@H]1CC(=O)N[C@@H](CCC(=O)O)C(=O)N[C@@H](CC(C)C)C(=O)N[C@H](CC(C)C)C(=O)N[C@@H](C(C)C)C(=O)N[C@@H](CC(=O)O)C(=O)N[C@H](CC(C)C)C(=O)N[C@@H](CC(C)C)C(=O)O1 [Surfactin] (EL[dL]VD[dL]L; linker N-C via X1)
- Log10 Reduction [11]: 0.00
- Percent Reduction [11]: 0.00%
- Log10 CFU/Coupon [11]: 9.18
- Log10 Reduction [12]: 0.00
- Percent Reduction [12]: 0.00%
- Log10 CFU/Coupon [12]: 8.28

Molecule: C=CCCCCCCCCC(=O)O [UDA, undecylenic acid]
- LR [15]: > 4
- LR [16]: > 5.31

Molecule: CCCCCCCCCC(=O)OCC(O)CO (centres unmarked) [monocaprin]
- reduction in the infectivity titer / inactivation [3]: > 5 log 10

Molecule: CCCCCCCC(=O)OCC(O)CO (centres unmarked) [monocaprylin]
- reduction in the infectivity titer / inactivation [3]: negligible effects

Molecule: CCCCCCCC/C=C\CCCCCCCC(=O)OCC(O)CO (centres unmarked) [monoolein]
- reduction in the infectivity titer / inactivation [3]: negligible effects

Molecule: CCCCCC/C=C\CCCCCCCC(=O)OCC(O)CO (centres unmarked) [monopalmitolein]
- reduction in the infectivity titer / inactivation [3]: negligible effects

Molecule: CCCCCCCCCCCCCC(=O)O [myristic acid]
- reduction in the infectivity titer / inactivation [3]: negligible effects

Molecule: CCCCCCCC/C=C\CCCCCCCC(=O)O [oleic acid]
- reduction in the infectivity titer / inactivation [3]: negligible effects

Molecule: CCCCCC/C=C\CCCCCCCC(=O)O [palmitoleic acid]
- reduction in the infectivity titer / inactivation [3]: negligible effects

Molecule: benzalkonium chloride [BAC]
- LOG REDUCTIONS Pseud ([13]; Acid pH 4.0): > 6 and > 7
- LOG REDUCTIONS Staph ([14]; Acid pH 4.0): 6.12 and > 7
